Test results published in PMC4929710, “Specificity and mechanism of action of alpha-helical membrane-active peptides interacting with model and biological membranes by single-molecule force spectroscopy” (Scientific Reports, 2016).

What was measured:
[1] = test system: chicken erythrocyte membranes; assay: Single-molecule force spectroscopy (AFM); type: binding; conditions: for Unbinding force Chicken erythrocyte: RMS ± SD, N-terminal Cys peptide on AFM tip via PEG linker
From the text: Based on the above results, five selected peptides of V13L, A12L/A20L, V13K, V13E, and L6A/L17A, with different hydrophobicity and charges were used to examine the interaction probabilities and forces between peptides and membranes, both on the lipid model membranes and on the biological membranes by SMFS based on AFM, respectively. A cysteine residue was covalently introduced to the N-terminus of peptides and provided a free sulfhydryl group to modify the tips of the AFM. A PEG linker was used since each heterobifunctional PEG–NHS linker (approximately 20 nm) can only covalently connect with a single peptide molecule, which guarantees a single-molecule interaction between MAPs and biological membranes in real time[19]. If an AFM tip was functionalized with two or more peptides, where several peaks were recorded. In the reports, data with two peaks were not collected and calculated. For one force–distance cycle, one peptide-functionalized AFM tip approached the model and biological membranes right on the top, and the subsequent tip was withdrawn from the cell membranes to retrace the process. […] In addition, blocking experiment was used to test the specificity of these force events. As the electrostatic attraction is one important reason for peptides approaching model membranes and biological membranes, the Tris-HCl buffer including plenty amino groups[20] was injected into the working chamber and inhibits the interactions between MAPs and model membranes/biological membranes. […] The unbinding forces of V13L against different model membranes and biological membranes with the loading rate of 1 × 10^5 pN s^−1 are shown in Fig. 3c,f–h,j–l.
The AFM tip was first washed with concentrated sulfuric acid and hydrogen peroxide (3:1, v:v). The tip was dried using ozone (O3) for 15 min and dried overnight in a dryer. The tip was then modified with APTES under an argon atmosphere and the peptide connected with a PEG–NHS linker. Finally, the AFM tip linked with the peptide was washed three times in PBS and kept at 4 °C. A 500-μL LUV suspension was deposited on Lys coated glass and the LUVs were absorbed on the surface for 1 h at 65 °C [9][29]. A. laidlawii was deposited on poly-L-lysine coated glass and absorbed for 1 h at 37 °C [30]. The 3T3-L1 and HeLa cells were cultured on glass slides in Dulbecco’s modified Eagle’s medium (DMEM). Before performing force spectroscopy experiments, the cells were washed with fresh DMEM three times to remove the cell metabolites. Isolation of chicken erythrocytes was carried out at room temperature. Then the erythrocytes were washed three times in 2 mL PBS buffer by centrifuge (1,000 rpm) and resuspended in PBS buffer. 200 μL erythrocyte suspension were deposited onto poly-L-lysine coated glass for 20 min[10]. The force measurements of MAPs with LUVs mimicking membranes and living cells were performed using the AFM5500 (Agilent Technologies, Chandler, AZ, USA)[19].

[2] = test system: PC/SM/PE/PS/Chol (4.35:4.35:1:0.3:1 w/w) LUVs; assay: Tryptophan fluorescence with LUVs; type: binding; conditions: PC/SM/PE/PS/Chol (4.35:4.35:1:0.3:1 w/w) LUVs versus HEPES buffer, 25 °C
From the text: (§1) In order to investigate the interaction between peptides and difference types of cell membranes, three different LUVs were used to mimic a prokaryotic cell membrane (PC/PG), a normal eukaryotic cell membrane (PC/Chol), and a cancer cell membrane (PC/SM/PE/PS/Chol). Tryptophan residue in the peptide sequence was used as a fluorescent probe to examine the interaction of peptides with model membranes. […] For example, in the PC/PG (7:3 w/w) anionic prokaryotic mimicking model membrane, peptides V13L and A12L/A20L had the strongest hydrophobicity with blue shift values of approximately 37 nm and 38 nm, respectively. Conversely, peptide V13E with a negative charge of glutamic acid residue, and peptide L6A/L17A with the lowest hydrophobicity had blue shift values of approximately 18 nm and 17 nm, respectively. […] In addition, within PC/SM/PE/PS/Chol (4.35:4.35:1:0.3:1 w/w) as a cancer-mimicking model membrane, the same results could be obtained in that peptide hydrophobicity correlates with anticancer activity and the blue shift values of peptides.
(§2) In accordance with previously described methods, LUVs were prepared with PC/PG (7:3 w/w), PC/Chol (8:1 w/w), and PC/SM/PE/PS/Chol (4.35:4.35:1:0.3:1 w/w) to mimic prokaryotic cell, […], membranes, respectively. Lipids using the freeze-thaw method as described previously, followed by extrusion through […] double-stacked nuclepore filters using an Mini-Extruder (Avanti Polar Lipids, Inc.)[11][27].
(§3) Three kinds of LUVs were prepared and cultured in HEPES buffer (pH 7.4, 10 mM HEPES, 150 mM NaCl) and the molar concentration was adjusted to 100 μM. A total of 14 μL of 100 μM MAPs was mixed with 686 μL of 100 μM liposomes at 25 °C for 10 min. A Shimadzu RF-5301PC, (excitation wavelength of […], emission wavelength of 300–450 nm) was used to measure the tryptophan fluorescence. Potassium iodide (KI) as a quencher was added to the previous reaction system for a final concentration of 0.02–0.08 M, respectively. The experimental data were plotted according to the Stern–Volmer equation F0/F = 1 + Ksv[Q], where F0 and F are the fluorescence intensity in the absence or presence of a quencher at concentration [Q], respectively, and Ksv is the Stern–Volmer quenching constant.

PC/Chol (8:1 w/w) LUVs = assay: Tryptophan fluorescence with LUVs; type: binding; conditions: PC/Chol (8:1 w/w) LUVs versus HEPES buffer, 25 °C
From the text: as §1, §2, §3

[3] = RP-HPLC retention time (peptide hydrophobicity); type: physicochemical; conditions: used as measure of peptide hydrophobicity
Protocol: All peptides were synthesized by solid-phase peptide synthesis using Fmoc (9-fluorenyl-methoxycar-bonyl) chemistry and rink amide 4-methylbenzhydrylamine resin (MBHA resin; 0.8 mmol/g), as described previously. The crude peptides were purified on a LC-6A preparative reversed-phase high performance liquid chromatography (RP-HPLC, Shimadzu, Kyoto, Japan) using a Zorbax 300 SB-C8 column (250 × 9.4 mm inner diameter, […] particle size, 300 Å pore size), as described previously. The purity of the peptides was characterized by analytical RP-HPLC, mass spectrometry, and amino acid analysis.

Compound | Unbinding force Chicken erythrocyte [1] | PC/SM/PE/PS/Chol Blueshift [2] | PC/Chol Blue shift (PC/Chol (8:1 w/w) LUVs) | tR (RP-HPLC retention time) [3] | Interaction probability of the force signal ([1]; chicken erythrocyte membranes, out of about 1000 force cycles)
Ac-KWKSFLKTFKSAEKTVLHTALKAISS-NH2 [Peptide V13E] | 59 ± 35 pN | 23 nm | 1 nm | 44.290 min | –
Ac-KWKSFAKTFKSAKKTVAHTALKAISS-NH2 [L6A/L17A] | 78 ± 39 pN | 21 nm | 0 nm | 32.210 min | –
CC[C@H](C)[C@H](NC(=O)[C@H](C)NC(=O)[C@H](CCCCN)NC(=O)[C@H](CC(C)C)NC(=O)[C@H](C)NC(=O)[C@@H](NC(=O)[C@H](Cc1cnc[nH]1)NC(=O)[C@H](CC(C)C)NC(=O)[C@@H](NC(=O)[C@@H](NC(=O)[C@H](CCCCN)NC(=O)[C@H](CCCCN)NC(=O)[C@H](C)NC(=O)[C@H](CO)NC(=O)[C@H](CCCCN)NC(=O)[C@H](Cc1ccccc1)NC(=O)[C@@H](NC(=O)[C@H](CCCCN)NC(=O)[C@H](CC(C)C)NC(=O)[C@H](Cc1ccccc1)NC(=O)[C@H](CO)NC(=O)[C@H](CCCCN)NC(=O)[C@H](Cc1c[nH]c2ccccc12)NC(=O)[C@H](CCCCN)NC(C)=O)[C@@H](C)O)[C@@H](C)O)C(C)C)[C@@H](C)O)C(=O)N[C@@H](CO)C(=O)N[C@@H](CO)C(N)=O [Peptide V13K] | 87 ± 39 pN | 27 nm | 4 nm | 38.790 min | –
Ac-KWKSFLKTFKSALKTVLHTALKAISS-NH2 [Peptide V13L] | 76 ± 34 pN | – | 11 nm | 53.177 min | about 18%
